Laboratory results: PubChem BioAssay AID248 (DTP/NCI, 2004)
Where “and” joins values, the source holds several entries; their conditions need not be identical. Equal values may be shown once. Toxic doses and inconclusive results are not listed. No stated cut-off is given here; in the data, active means T/C of 150% or more; inactive means T/C below 125%.

Test system: L1210 leukemia ip in BDF1 mice, survival T/C
Assay: NCI In Vivo Anticancer Drug Screen. Data for tumor model L1210 Leukemia (intraperitoneal) in B6D2F1 (BDF1) mice
Conditions: endpoint: mean survival time, higher = longer survival
In short: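 Each compound was tested against a transplantable tumor grown in mice. The endpoint was survival, with treated animals benchmarked against vehicle controls as a simple ratio.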

[1] = dose: 100.0 mg/kg/injection, schedule: Q01DX009 (ip), vehicle: saline with Tween-80
[2] = dose: 100.0 mg/kg/injection, schedule: Q04DX003 (ip), vehicle: saline with Tween-80
[3] = dose: 200.0 mg/kg/injection, schedule: Q01DX009 (ip), vehicle: saline with Tween-80
[4] = dose: 200.0 mg/kg/injection, schedule: Q04DX003 (ip), vehicle: saline with Tween-80
[5] = dose: 400.0 mg/kg/injection, schedule: Q01DX009 (ip), vehicle: saline with Tween-80
[6] = dose: 400.0 mg/kg/injection, schedule: Q04DX003 (ip), vehicle: saline with Tween-80
[7] = dose: 100.0 mg/kg/injection, schedule: Q01DX001 (ip), vehicle: saline
[8] = dose: 200.0 mg/kg/injection, schedule: Q01DX001 (ip), vehicle: saline
[9] = dose: 400.0 mg/kg/injection, schedule: Q01DX001 (ip), vehicle: saline

Measured: T/C

c1ccc([Si](c2ccccc2)(c2ccccc2)c2ccc([Si](c3ccccc3)(c3ccccc3)c3ccccc3)cc2)cc1
inactive: [1] 95 % of control | [2] 103 % of control | [3] 92 % of control | [4] 90 % of control | [5] 90 % of control | [6] 106 % of control

Clc1ccc(N=Cc2ccccc2Cl)cc1
inactive: [1] 94 % of control | [3] 92 % of control | [5] 89 % of control

CCC(C)CC=O (stereo not given)
inactive: dose: 50.0 mg/kg/injection, schedule: Q01DX001 (ip), vehicle: carboxymethylcellulose (CMC) 95 % of control | dose: 100.0 mg/kg/injection, schedule: Q01DX001 (ip), vehicle: carboxymethylcellulose (CMC) 98 % of control | dose: 200.0 mg/kg/injection, schedule: Q01DX001 (ip), vehicle: carboxymethylcellulose (CMC) 93 % of control | dose: 400.0 mg/kg/injection, schedule: Q01DX001 (ip), vehicle: carboxymethylcellulose (CMC) 101 % of control

CCOC(=O)c1c(N)[nH]c(SSc2[nH]c(N)c(C(=O)OCC)c2C(=O)OCC)c1C(=O)OCC
inactive: [2] 99 % of control | [4] 96 % of control | [6] 89 % of control

O=C(O)C(Cc1ccc(O)c([N+](=O)[O-])c1)N1C(=O)c2ccccc2C1=O (stereo not given)
inactive: [7] 101 % of control | [8] 95 % of control | [9] 95 % of control

O=C(O)COc1ccccc1O
inactive: [1] 101 % of control | [3] 101 % of control

COc1cc2c(cc1O)CCN(C)C2Cc1ccc(OC)c(OC)c1 (stereo not given)
inactive: dose: 75.0 mg/kg/injection, schedule: Q01DX001 (ip), vehicle: carboxymethylcellulose (CMC) 95 % of control | dose: 150.0 mg/kg/injection, schedule: Q01DX001 (ip), vehicle: carboxymethylcellulose (CMC) 94 % of control

CS(=O)(=O)NCC1OC(n2cnc3c(N)ncnc32)C(O)C1O (stereo not given)
inactive: [7] 104 % of control | [8] 96 % of control | [9] 98 % of control

COc1cc([N+](=O)[O-])ccc1NC(=O)NCCc1ccc(OC)c(OC)c1
inactive: dose: 100.0 mg/kg/injection, schedule: Q01DX009 (ip), vehicle: Klucel (hydroxypropylcellulose) (HPC) 93 % of control | dose: 200.0 mg/kg/injection, schedule: Q01DX009 (ip), vehicle: Klucel (hydroxypropylcellulose) (HPC) 96 % of control | dose: 400.0 mg/kg/injection, schedule: Q01DX009 (ip), vehicle: Klucel (hydroxypropylcellulose) (HPC) 100 % of control

C1CN(CCN2CCOCC2)CCO1
inactive: dose: 100.0 mg/kg/injection, schedule: Q01DX009 (ip), vehicle: saline 100 % of control | dose: 200.0 mg/kg/injection, schedule: Q01DX009 (ip), vehicle: saline 93 % of control | dose: 400.0 mg/kg/injection, schedule: Q01DX009 (ip), vehicle: saline 96 % of control

CCOc1ccc(NC(=S)NC(=O)c2cccc([N+](=O)[O-])c2)cc1
inactive: dose: 100.0 mg/kg/injection, schedule: Q01DX001 (ip), vehicle: saline with Tween-80 93 % of control | [1] 92 % of control and 95 % of control | dose: 100.0 mg/kg/injection, schedule: Q04DX002 (ip), vehicle: saline with Tween-80 93 % of control and 95 % of control | [2] 98 % of control | dose: 200.0 mg/kg/injection, schedule: Q01DX001 (ip), vehicle: saline with Tween-80 101 % of control | [3] 92 % of control and 98 % of control | dose: 200.0 mg/kg/injection, schedule: Q04DX002 (ip), vehicle: saline with Tween-80 97 % of control and 107 % of control | [4] 96 % of control | dose: 400.0 mg/kg/injection, schedule: Q01DX001 (ip), vehicle: saline with Tween-80 102 % of control | [5] 97 % of control and 106 % of control | dose: 400.0 mg/kg/injection, schedule: Q04DX002 (ip), vehicle: saline with Tween-80 104 % of control and 107 % of control | [6] 91 % of control

CC1Oc2ccccc2OC1CN1CCC2(CC1)C(=O)N(C)CN2c1ccccc1 (stereo not given)
inactive: dose: 100.0 mg/kg/injection, schedule: Q01DX001 (ip), vehicle: Klucel (hydroxypropylcellulose) (HPC) 88 % of control | dose: 200.0 mg/kg/injection, schedule: Q01DX001 (ip), vehicle: Klucel (hydroxypropylcellulose) (HPC) 99 % of control | dose: 400.0 mg/kg/injection, schedule: Q01DX001 (ip), vehicle: Klucel (hydroxypropylcellulose) (HPC) 86 % of control

COCP(=O)(O)O
inactive: dose: 100.0 mg/kg/injection, schedule: Q04DX002 (ip), vehicle: saline 96 % of control | dose: 200.0 mg/kg/injection, schedule: Q04DX002 (ip), vehicle: saline 100 % of control

CCCCCCCCCCCC(=O)NC(=S)Nc1ccc2ccccc2c1
inactive: dose: 100.0 mg/kg/injection, schedule: Q04DX003 (ip), vehicle: Klucel (hydroxypropylcellulose) (HPC) 86 % of control | dose: 200.0 mg/kg/injection, schedule: Q04DX003 (ip), vehicle: Klucel (hydroxypropylcellulose) (HPC) 86 % of control | dose: 400.0 mg/kg/injection, schedule: Q04DX003 (ip), vehicle: Klucel (hydroxypropylcellulose) (HPC) 86 % of control

COc1ccc(/C=C(/C(=O)O)c2ccc(OC)cc2)cc1
inactive: dose: 100.0 mg/kg/injection, schedule: Q04DX003 (ip), vehicle: other 98 % of control | dose: 200.0 mg/kg/injection, schedule: Q04DX003 (ip), vehicle: other 95 % of control | dose: 400.0 mg/kg/injection, schedule: Q04DX003 (ip), vehicle: other 95 % of control
